Experimental data reported in patent US9862690B2, “Treatment of pulmonary and other conditions” (University of Pittsburgh—of the Commonwealth System of …, priority 2013, dated 2018).

Legend:
[1] = FRAP assay (ferric reduction/anti-oxidant power); format: biochemical; conditions: 10 μmol compound, 5 min, 593 nm; Troxol reference
Method: The antioxidant activity of PB141 was determined by ferric reduction/anti-oxidant power (FRAP) assay in which the compound is reacted with ferric tripyridyltriazine complex. Data are representative of one of two independent experiments; n=3; *** P<0.001 versus Troxol.
The antioxidant activity of PB141 or PB157 was determined by ferric reduction/anti-oxidant power (FRAP) assay in which the compounds are reacted with ferric tripyridyltriazine complex. The ferric complex was prepared at room temperature by reaction of ferric chloride (16.7 mmol) and 2,4,6-trispyridyl-s-triazine (8.33 mmol) in pH 3.6 acetate buffer (0.25 M). The FRAP reagent was used immediately after preparation. PB141 or PB157 (10 μmol) was added to the FRAP reagent (1 ml) and mixed by vortexing. The reaction was allowed to stabilize for 5 min and the absorbance was measured. The antioxidant activities of these compounds were determined by the ability to reduce the ferric complex to a […] ferrous complex, monitored at 593 nm. Troxol (10 μmol) was used as reference standard.

[2] = system: chronic hypoxia-induced pulmonary hypertension in mice; assay: Chronic hypoxia-induced pulmonary hypertension model; format: in vivo; conditions: 25 mg/kg nebulized during last 10 days of 3 weeks hypoxia
Method: CH-induced pulmonary hypertension was produced in mice by exposing them to chronic hypoxia (CH; FIO2 10%) or room air (N; control) for 3 weeks. During the last 10 days of exposure, PB141 (25 mg/kg) or vehicle (saline) was nebulized and delivered to cage air via a micropump nebulizer. Twenty-four hours following the last nebulization mice were anesthetized and the right internal jugular vein of each mouse was surgically exposed and cannulated with a pressure transducer that was advanced to record right ventricular pressure, then advanced further to measure pulmonary arterial pressure: (top left) mean pulmonary arterial pressure; (top right) right ventricular systolic pressure (RVSP); (bottom left) […]; (bottom right) right ventricular hypertrophy. Data are representative of one of two independent experiments with n=4-6 mice per group.
CH-induced pulmonary hypertension was produced in mice by exposing them to CH (FIO2 10%) or room air for 3 weeks. During the last 10 days of exposure, PB141 (25 mg/kg) or vehicle (saline) was nebulized and delivered to cage air via a micropump nebulizer. Twenty-four hours following the last nebulization lung samples were obtained. Graphs show medial wall thickness of a-SMA-positive acinar blood vessels and percent of non-muscularized, partially muscularized, and fully muscularized small vessels. Data are representative of one of two independent experiments with n=4-6 mice per group.
Pulmonary hypertension was induced in mice by exposing them to chronic hypoxia (FiO2 10%) for 3 weeks. Control mice breathed room air during the last 10 days of exposure, PB141 (25 mg/kg) or vehicle (saline) was nebulized into the cage air for 30 min via a nebulizer.
Twenty-four hours following the last PB141 administration, mice were anesthetized, and the right internal jugular vein of each mouse was surgically exposed and cannulated with a pressure transducer that was advanced to record right ventricular systolic pressure (RVSP), which is elevated in pulmonary hypertension. […] The heart was then excised and the right ventricle was separated from the left ventricle (including the septum). Each ventricle was weighted separately.
Twenty-four hours following the last PB141 administration, lung samples were obtained. Immunostaining for α-SMA, a key marker in pulmonary hypertension, was performed in paraffin sections of lung and the sections were examined microscopically. […] All these measures of vascular wall remodeling in small pulmonary vessels, the pathophysiology underlying pulmonary hypertension, were reduced by PB141 treatment (FIG. 20).

[3] = Nebulization of PB141: aerosol droplet size by Andersen cascade impactor; format: physicochemical; conditions: dissolved in water or PBS; micropump nebulizer, 10 L of air/min
Method: PB141 was dissolved in water or different concentrations of PBS and the solutions were aerosolized using a micropump nebulizer (Buxco Research Systems, Wilmington, N.C.) flowing at 10 L of air/min. Aerosol droplet size was measured with an Andersen cascade impactor. (A) Distribution of PB141 aerosol droplet sizes. (B) The concentration of PB141 during a 30 min nebulization period was measured by collecting samples during nebulization and analyzing by spectrophotometer in two independent experiments.
PB141 was dissolved in water or different concentrations of PBS and aerosols were generated using a micropump nebulizer (Buxco Research Systems, Wilmington, N.C.) flowing at 10 L of air/min. Aerosol droplet size was measured with an Andersen cascade impactor. The concentration of PB141 during a 30-min nebulization period was measured by collecting samples during nebulization and analyzing them by spectrophotometer in […]. […] Nebulization was optimal for a solution of PB141 in 2% saline, although a formulation in pure water was also effective.

[4] = system: NNK-induced lung tumorigenesis in A/J mice; assay: NNK-induced lung tumorigenesis in A/J mice; format: in vivo; conditions: 25 mg/kg nebulized 30 min/day for eight weeks
Method: Induction of lung tumorigenesis by intraperitoneal (i.p.) injection on days 1, 3, and 5 with 50 mg/kg of NNK dissolved in saline was followed by nebulization of PB141 (25 mg/kg) or vehicle (saline) and delivery to cage air via a micropump nebulizer. After 8 weeks the lung was examined histologically following H&E staining. (A) Number of lung lesions. (B) Histology showing lung tumor incidence and burden. Data are representative of one of two independent experiments with n=9-11 mice per group.
A/J mice were injected intraperitoneally on days 1, 3, and 5 with 50 mg/kg of 4-methylnitrosamino-1-(3-pyridyl)-1-butanone (NNK; Chemsyn Science Laboratories, Lenexa, Kans.) dissolved in saline. The mice were then held for 8 weeks to allow development of preinvasive lesions: alveolar hyperplasias and adenomas. […]
Mice were euthanized following the eight-week treatment period. […] Lung lesions were quantified by determining the incidence and prevalence of pulmonary pleural surface tumors, counting both the right and left lungs of each mouse. […] Hyperplastic and neoplastic lesions of the lungs were scored according to the International Classification of Rodent Tumors in 6 or 7 sections per lung. Sections were further assessed for morphometry and Ki67 immunohistochemistry.

For `CC(=O)N[C@@H](CSC(CC(=O)CC(SC[C@H](NC(C)=O)C(=O)O)c1cnccn1)c1cnccn1)C(=O)O` (some centres unmarked) [PB141], the “Antioxidant activity (reduction of ferric complex)” value [1] was “highly significant and approximately equal”, the “Increase in ratio of right ventricular weight to left ventricle plus septum” value [2] was “significantly reduced” and the “Increase in right ventricular systolic pressure (RVSP)” value [2] was “significantly smaller”. For the same molecule, the “Measures of vascular wall remodeling (α-SMA-positive vessels, muscularization, median wall thickness)” value [2] was “reduced”, the Pulmonary arterial pressure [2] was “significantly smaller” and the Pulmonary vascular resistance [2] was “significantly smaller”. The Aerosol droplet size [3] was 1-2 μm and the “Inhibition of tumor progression, premalignant lung cancer, and cell proliferation” value [4] was roughly 40%.
